SMILES strings stand for the structures.

The data set is described as follows: Single-dose pharmacokinetic study in healthy volunteers, plasma concentrations by LC-MS/MS. The format is in vivo, human. The settings on record: single oral dose of 20 mg pantoprazole or 10 mg omeprazole, 20 healthy volunteers, fasted.

Protocol: An open label, randomized, single‐dose pharmacokinetic study in healthy volunteers was conducted in cross‐over design.
The subjects presented to the study facilities fasted in the morning. Three hours after drug intake the subjects received a meal on both study days. […] Venous blood samples (7 mL each) were drawn into EDTA‐containing tubes. Blood samples were centrifuged immediately after blood sampling for 10 min at 2000g to generate blood plasma. Blood plasma was aliquoted and stored at −32 °C until analysis.
Probe drugs and metabolite concentrations were determined using a liquid‐chromatography tandem mass spectrometer (LC–MS/MS) system consisting of an Agilent 1290 Infinity II UHPLC coupled to a Sciex QTRAP6500 + triple quadrupole mass spectrometer.
The total chromatographic method length was increased from 8.5 to 8.8 min. […] Samples were vortexed for 10 s and centrifuged for 20 min at 17.000 x g and 4 °C. A total of 40 μl supernatant were diluted with 40 μl LC grade water, vortexed briefly and centrifuged again for 5 min at 17.000 x g and 4 °C.
The samples were vortexed for 10 s and centrifuged for 20 min at 4 °C and 17.000 x g. […]
The AUC0‐8h metabolic ratios (MR) were calculated as follows: AUC0‐8h MR = AUC0‐8h, metabolite/AUC0‐8h, substrate. […] Statistical significance was assessed using non‐parametric Kruskal‐Wallis test with Dunn's post hoc test. […]

Molecule `COc1ccnc(C[S+]([O-])c2nc3ccc(OC(F)F)cc3[nH]2)c1OC` (stereo not shown) [pantoprazole] gave a tmax of 2 h.

The values above are taken from paper PMC13619035 (British Journal of Clinical Pharmacology, 2026).
